Reference: patent US20260184707A1, “PHARMACEUTICAL COMPOUNDS FOR THE TREATMENT OF COMPLEMENT MEDIATED DISORDERS” (ALEXION PHARMACEUTICALS, INC., priority 2022, published 2026)

Target: T1, Human complement C1s enzyme (Homo sapiens, UniProt P09871)
T1 construct: purified from human serum, Complement Technology, Inc; purchased Complement Technology, Inc; host or cells: human serum (plasma-derived native protein)
T1 sequence (P09871 438-688 limits assumed): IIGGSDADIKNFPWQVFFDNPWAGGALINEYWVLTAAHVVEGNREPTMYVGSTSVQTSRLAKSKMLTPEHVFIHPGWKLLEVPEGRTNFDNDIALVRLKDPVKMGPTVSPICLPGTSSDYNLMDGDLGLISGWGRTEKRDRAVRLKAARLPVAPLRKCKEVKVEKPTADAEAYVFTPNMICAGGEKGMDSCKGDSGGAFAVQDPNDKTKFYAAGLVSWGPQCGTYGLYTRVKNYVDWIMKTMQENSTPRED
T1 sequence (P09871 16-437 partner limits assumed): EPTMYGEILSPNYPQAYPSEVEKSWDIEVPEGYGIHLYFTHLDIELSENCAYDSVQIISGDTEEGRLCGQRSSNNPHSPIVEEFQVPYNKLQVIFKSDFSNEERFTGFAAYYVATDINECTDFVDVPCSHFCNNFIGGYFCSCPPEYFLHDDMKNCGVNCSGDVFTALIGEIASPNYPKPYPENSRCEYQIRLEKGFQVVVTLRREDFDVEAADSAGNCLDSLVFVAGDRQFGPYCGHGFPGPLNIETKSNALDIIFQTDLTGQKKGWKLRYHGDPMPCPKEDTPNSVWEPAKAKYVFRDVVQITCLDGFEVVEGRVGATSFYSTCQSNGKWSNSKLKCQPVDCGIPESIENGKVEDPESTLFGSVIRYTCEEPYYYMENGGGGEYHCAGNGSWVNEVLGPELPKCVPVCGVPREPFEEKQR
Experiment: Human C1s enzyme assay
Assay type: biochemical
Conditions: human complement C1s enzyme 1.16 nM, substrate Z-L-Lys-SBzl, A405; read-out: IC50 (Stars)
Procedure, shortened: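 Thioesterase activity followed colorimetrically (DTNB, A405, 30-s reads) using 100 μM Z-L-Lys-SBzl substrate. Enzyme, human serum-derived C1s at 1.16 nM final, was incubated with test compound for 5 min, room temperature, pH 7.5 Tris buffer with 1 M NaCl. Rate-versus-concentration data fitted by nonlinear regression for IC50.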

IC50: > 1 µM
SMILES: O=C(Cn1c(N2CCCCC2)cnc(N[C@H](CF)c2ccc3oc4ccccc4c3c2)c1=O)NCc1cc2cnccc2[nH]1 [Compound 494, (S)-N-((1H-pyrrolo[3,2-c]pyridin-2-yl)methyl)-2-(3-((1-(dibenzo[b,d]furan-2-yl)-2-fluoroethyl)amino)-2-oxo-6-(piperidin-1-yl)pyrazin-1(2H)-yl)acetamide]
